13 molecules from PubChem BioAssay (NCI) can be followed below.

Among the test systems are SR leukemia; SK-MEL-5 melanoma; SNB-75 CNS; OVCAR-5 ovarian; SNB-19 CNS; SW-620 colon; NCI-H23 lung; UO-31 renal; SF-539 CNS; NCI-H522 lung.
What all share (test): inhibition of tumour cell growth, NCI panel, 48 h

Each structure is given as a SMILES string.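 Five concentrations, 48 hours, 96-well plates. Here, GI50 denotes the concentration required for 50% inhibition of growth. TGI marks complete inhibition of growth.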 A value given as a limit tells only on which side of the number the result lay.

Turning to `O=C1CN2Cc3cc(N4CCOCC4)ccc3N=C2N1`, the TGI in the test on SR leukemia, in the test on SK-MEL-5 melanoma, in the test on SNB-75 CNS, in the test with OVCAR-5 ovarian, in the test with SNB-19 CNS and in the test on SW-620 colon was more than 100 µM throughout. Besides, the TGI in the test with NCI-H23 lung and in the test with UO-31 renal was more than 100 µM in each case.

`NCCCNc1nc2ccccc2c2c(=O)c3cc(C(F)(F)F)ccc3sc12`: the GI50 with SF-539 CNS is 1.71 µM; in the test with SK-MEL-5 melanoma, 1.7 µM; in the test with SNB-75 CNS, 1.53 µM; in the test with OVCAR-5 ovarian it was 1.73 µM; in the test with SW-620 colon it was 1.69 µM; in the test with UO-31 renal, 1.4 µM. Besides, the TGI stood at 3.16 µM in the test with SF-539 CNS; 3.07 µM in the test with SK-MEL-5 melanoma; 2.96 µM in the test with SNB-75 CNS; 3.15 µM with OVCAR-5 ovarian; 3.18 µM in the test on SW-620 colon; 2.74 µM with UO-31 renal.

`COCC1CCCN1c1ccc(/C=C(/C#N)C(N)=S)cc1` (stereo not given): the GI50 in the test with NCI-H522 lung was 12.7 µM; in the test on SF-539 CNS, more than 100 µM; in the test on SK-MEL-5 melanoma it was 89.1 µM; in the test with SNB-75 CNS, 90.7 µM; in the test with OVCAR-5 ovarian, more than 100 µM; in the test on SNB-19 CNS, more than 100 µM. Further, the GI50 was 79.4 µM in the test on SW-620 colon, more than 100 µM in the test with NCI-H23 lung and more than 100 µM in the test with UO-31 renal. For the same molecule, the TGI was 61.4 µM in the test on NCI-H522 lung; more than 100 µM in the test on SF-539 CNS; more than 100 µM in the test on SK-MEL-5 melanoma; more than 100 µM in the test on SNB-75 CNS; more than 100 µM in the test with OVCAR-5 ovarian; more than 100 µM in the test with SNB-19 CNS. In addition, the TGI in the test with SW-620 colon, in the test with NCI-H23 lung and with UO-31 renal was more than 100 µM throughout.

Take `CCCCC(C)C1CCC2(C)C=CC(=O)C(C)=C2C1O` (stereo not given): the TGI in the test on NCI-H522 lung, in the test with SF-539 CNS, in the test with SK-MEL-5 melanoma, in the test with SNB-75 CNS, with OVCAR-5 ovarian and with SNB-19 CNS was more than 100 µM throughout. Besides, the TGI in the test with SW-620 colon, in the test with NCI-H23 lung and in the test on UO-31 renal was more than 100 µM each time.

Regarding `CC(C)NC(=O)CN1CCN(C2=CC(=O)c3c(O)ccc(O)c3C2=O)CC1`, the TGI with NCI-H522 lung was 34.5 µM; with SF-539 CNS it was 30.5 µM; in the test on SK-MEL-5 melanoma, 7.78 µM; with SNB-75 CNS, 32.6 µM; in the test on OVCAR-5 ovarian, 33.5 µM; in the test on SNB-19 CNS, 37.2 µM. In addition, the TGI in the test on SW-620 colon came to 14.4 µM; with NCI-H23 lung it was 24.3 µM; in the test with UO-31 renal, 33.2 µM.

On to `O=C(CC(=O)N1N=C(N2CCCCC2)CC1c1ccccc1)Nc1ccc(Cl)cc1` (stereo not given), for which the TGI in the test on NCI-H522 lung, in the test on SK-MEL-5 melanoma, in the test on SNB-75 CNS, with OVCAR-5 ovarian, with SNB-19 CNS and in the test on SW-620 colon was more than 100 µM each time. In addition, the TGI in the test with NCI-H23 lung and in the test on UO-31 renal was more than 100 µM throughout.

Turning to `Clc1ccc(SCCSCCCCCCCCCCSCCSc2ccc(Cl)cc2)cc1`, the TGI in the test on NCI-H522 lung, in the test on SF-539 CNS, with SK-MEL-5 melanoma, with SNB-75 CNS, with OVCAR-5 ovarian and in the test with SNB-19 CNS was more than 100 µM each time. Besides, the TGI with SW-620 colon, in the test with NCI-H23 lung and in the test with UO-31 renal was more than 100 µM throughout.

On to `COc1ccc(C2C3C(=O)C=CC(=O)C3[C@@H]2C)cc1OC` (stereo not given in full), for which the TGI was 33.4 µM in the test with NCI-H522 lung; more than 100 µM with SF-539 CNS; more than 100 µM in the test with SK-MEL-5 melanoma; more than 100 µM in the test with SNB-75 CNS; more than 100 µM in the test on OVCAR-5 ovarian; more than 100 µM in the test on SNB-19 CNS. Moreover, the TGI in the test on SW-620 colon, with NCI-H23 lung and in the test with UO-31 renal was more than 100 µM each time.

As to `COc1cc(C2c3cc4c(cc3OC(Nc3ccc(C(=O)O)cc3)C2C)OCO4)cc(OC)c1OC` (stereo not given), the TGI in the test on NCI-H522 lung is 6.02 µM; in the test on SF-539 CNS it was 0.561 µM; in the test with SK-MEL-5 melanoma, 0.522 µM; in the test with SNB-75 CNS it was 3.53 µM; with OVCAR-5 ovarian it was more than 100 µM; in the test with SNB-19 CNS it was more than 93.4 µM. Further, the figures for the TGI in the test on SW-620 colon, in the test with NCI-H23 lung and in the test on UO-31 renal were more than 100 µM, more than 68.7 µM and 28 µM, respectively.

For the molecule `OC12COc3ccccc3C1Oc1ccccc1C2` (stereo not given), the TGI with NCI-H522 lung, in the test on SF-539 CNS, in the test on SK-MEL-5 melanoma, in the test with SNB-75 CNS, with OVCAR-5 ovarian and with SW-620 colon was more than 100 µM each time. Moreover, the TGI in the test with NCI-H23 lung and with UO-31 renal was more than 100 µM each time.

As to `COc1cc2c(c(C)c1O)[C@H]1COc3ccccc3[C@H]1O2`, the TGI is 13.5 µM with NCI-H522 lung; 36.7 µM with SF-539 CNS; 22.9 µM with SK-MEL-5 melanoma; 23.7 µM in the test on SNB-75 CNS; more than 100 µM in the test on OVCAR-5 ovarian; 26.7 µM in the test on SNB-19 CNS. Moreover, the results for the TGI in the test with NCI-H23 lung and in the test on UO-31 renal were 64.2 µM and 35.5 µM, respectively.

For `CC1(C)C(=O)C(C)(C)C12SSC1(S2)C(C)(C)C(=O)C1(C)C`, the TGI in the test on SF-539 CNS, with SR leukemia, in the test on SK-MEL-5 melanoma, with SNB-75 CNS, in the test on OVCAR-5 ovarian and in the test on SNB-19 CNS was more than 100 µM throughout. Moreover, the TGI in the test on SW-620 colon, in the test with NCI-H23 lung and in the test with UO-31 renal was more than 100 µM each time.

With `O=P(Oc1ccccc1)(Oc1ccccc1)Oc1c[nH]c2ccccc12`, the TGI in the test with SF-539 CNS is 24 µM; in the test with SR leukemia it was more than 100 µM; in the test with SK-MEL-5 melanoma, 24.8 µM; in the test on SNB-75 CNS, 23.9 µM; with OVCAR-5 ovarian it was 4.56 µM; with SNB-19 CNS it was 27.7 µM. In addition, the figures for the TGI in the test on SW-620 colon, in the test with NCI-H23 lung and with UO-31 renal were 36 µM, 25.8 µM and 19.7 µM, respectively.
